Source: ChEMBL document CHEMBL1649551, “Antifungal activity of tamoxifen: in vitro and in vivo activities and mechanistic characterization” (2009)
≈ marks a conversion by molar mass, not a printed value. Calls of active or inactive are those of the source. The calls are words filed in the database; no cut-off is given here.

Assays:
Saccharomyces cerevisiae [1] = assay: Antifungal activity against Saccharomyces cerevisiae BY4741 assessed as inhibition fungal bud formation at 8 ug/ml; type: functional, organism-based
Candida albicans [2] = assay: Antifungal activity against Candida albicans ATCC 90028 after 24 hrs by CLSI method; type: functional; details: ATCC 90028, 24 h
Cryptococcus neoformans [3] = assay: Antifungal activity against Cryptococcus neoformans KN99alpha after 24 hrs by CLSI method; type: functional
[4] = biological target: Calmodulin (Saccharomyces cerevisiae S288c) (UniProt P06787); assay: Inhibition of Myo2-GFP binding to Saccharomyces cerevisiae BY4741 calmodulin at 50 ug/ml by Western blot analysis
Chain of Calmodulin (Saccharomyces cerevisiae S288c) (P06787 whole entry): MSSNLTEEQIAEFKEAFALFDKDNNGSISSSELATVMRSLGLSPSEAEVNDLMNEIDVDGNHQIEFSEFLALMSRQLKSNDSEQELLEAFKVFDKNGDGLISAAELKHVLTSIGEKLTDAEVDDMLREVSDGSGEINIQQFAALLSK

Candida tropicalis = assay: Antifungal activity against Candida tropicalis MR064-H after 24 hrs by CLSI method; type: functional
Candida albicans [5] = assay: Antifungal activity against Candida albicans SC5314 at 16 ug/ml after 2 hrs by alexa fluor-phalloidin staining; type: functional, organism-based
Saccharomyces cerevisiae [6] = assay: Antifungal activity against Saccharomyces cerevisiae BY4741 assessed as appearance of unbudded cells with more than one nucleus at 8 ug/ml; type: functional
Cryptococcus neoformans [7] = assay: Antifungal activity against Cryptococcus neoformans NYS3-81 after 24 hrs by CLSI method; type: functional; details: NYS3-81, 24 h
Candida parapsilosis = assay: Antifungal activity against Candida parapsilosis R058-G12 after 24 hrs by CLSI method; type: functional; details: Lodderomyces parapsilosis, R058-G12, 24 h
Saccharomyces cerevisiae [8] = assay: Antifungal activity against Saccharomyces cerevisiae BY4741 expressing CMD1 at 62 to 125 ug/mL after 3 days by photographic analysis; type: functional, organism-based
Saccharomyces cerevisiae [9] = assay: Antifungal activity against Saccharomyces cerevisiae BY4741 expressing PKC1 at 62 to 125 ug/mL after 3 days by photographic analysis; type: functional, organism-based
Nakaseomyces glabratus = assay: Antifungal activity against Candida glabrata MR084-G12 after 24 hrs by CLSI method; type: functional; details: MR084-G12, 24 h
Candida dubliniensis = assay: Antifungal activity against Candida dubliniensis CD1 after 24 hrs by CLSI method; type: functional; details: CD1, 24 h
Candida albicans [10] = assay: Antifungal activity against Candida albicans SC5314 infected in BALB/c mouse assessed as fungal count per gram of kidney at 200 mg/kg, po administered for 7 days prior to fungal infection; type: functional
Candida albicans [11] = assay: Antifungal activity against Candida albicans SC5314 after 24 hrs by CLSI method; type: functional; details: SC5314, 24 h
Saccharomyces cerevisiae [12] = assay: Antifungal activity against Saccharomyces cerevisiae BY4741 at 8 ug/ml by alexa fluor-phalloidin staining; type: functional, organism-based
Saccharomyces cerevisiae [13] = assay: Antifungal activity against Saccharomyces cerevisiae BY4741 after 24 hrs by CLSI method; type: functional; details: BY4741, 24 h

| SMILES | Activity (Saccharomyces cerevisiae [1]) | MIC (Candida albicans [2]) | MIC (Cryptococcus neoformans [3]) | inhibition [4] | MIC (Candida tropicalis) | Activity (Candida albicans [5]) | Activity (Saccharomyces cerevisiae [6]) | MIC (Cryptococcus neoformans [7]) | MIC (Candida parapsilosis) | Activity (Saccharomyces cerevisiae [8]) | Activity (Saccharomyces cerevisiae [9]) | MIC (Nakaseomyces glabratus) | MIC (Candida dubliniensis) | log10cfu (Candida albicans [10]) | MIC (Candida albicans [11]) | Activity (Saccharomyces cerevisiae [12]) | MIC (Saccharomyces cerevisiae [13]) |
| --- | --- | --- | --- | --- | --- | --- | --- | --- | --- | --- | --- | --- | --- | --- | --- | --- | --- |
| CC/C(=C(\c1ccccc1)c1ccc(OCCN(C)C)cc1)c1ccccc1 [TAMOXIFEN] | Active | 32 µg/mL (≈ 86.1 µM) | 64 µg/mL (≈ 172 µM) | Active | 32 µg/mL (≈ 86.1 µM) | Active | 15% | 64 µg/mL (≈ 172 µM) | 64 µg/mL (≈ 172 µM) | Active | Active | 8 µg/mL (≈ 21.5 µM) | 16 µg/mL (≈ 43.1 µM) | 1.5 | 32 µg/mL (≈ 86.1 µM) | Active | 12 µg/mL (≈ 32.3 µM) |
| CCN(CC)CCOc1ccc(C(=C(Cl)c2ccccc2)c2ccccc2)cc1 [CLOMIPHENE] |  | > 64 µg/mL | 64 µg/mL (≈ 158 µM) |  | 64 µg/mL (≈ 158 µM) |  |  | 64 µg/mL (≈ 158 µM) | 64 µg/mL (≈ 158 µM) |  |  | 32 µg/mL (≈ 78.8 µM) | 32 µg/mL (≈ 78.8 µM) |  | 32 µg/mL (≈ 78.8 µM) |  | 18 µg/mL (≈ 44.3 µM) |
| CN1CCN(CCCN2c3ccccc3Sc3ccc(Cl)cc32)CC1 |  |  |  | Active |  |  |  |  |  |  |  |  |  |  |  |  |  |
